14 molecules from patent publication US12398107B2, “Fungicidal nitroanilino substituted pyrazoles” (FMC Corporation, priority 2018, dated 2025) can be followed below.

Holding throughout (format): in vivo
Assay [1] relates to Puccinia recondita f. sp. tritici. In words: Test B: wheat leaf rust, preventive spray on wheat seedlings. The settings on record: 100 = 100% disease control, 0 = no control relative to controls. A digest of the protocol: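 Compounds in acetone/water (50/50) with 250 ppm PEG400, sprayed to run-off on wheat seedlings at stated ppm; inoculated next day with P. recondita spores. Held 24 h saturated at 20° C., then 7 days in growth chamber at 20° C.; rating 0–100 = % disease control vs controls.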

The subject of assay [2] is Septoria tritici. The assay is described as follows: Test A: wheat leaf blotch, preventive spray on wheat seedlings. Conditions: 100 = 100% disease control, 0 = no control relative to controls. A digest of the protocol: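 Compounds were suspended in acetone/water (50/50) with 250 ppm PEG400 and sprayed to run-off on wheat seedlings. The next day the seedlings were inoculated with Septoria tritici spores, held 48 h at 24 °C in saturated humidity, then 17 days at 20 °C. Disease control was rated 0–100 relative to controls.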

The test system of assay [3] is Botrytis cinerea. In words: Test E: tomato Botrytis, preventive spray on tomato seedlings. The settings on record: 100 = 100% disease control, 0 = no control. A digest of the protocol:
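Tomato seedlings sprayed to run-off with compound (ppm) in acetone/water with 250 ppm PEG400, then inoculated next day with B. cinerea spores. Held 48 h at 20 °C in saturated atmosphere, then 3 days at 24 °C. Visual rating 0–100% disease control relative to untreated controls.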

Assay [4] has as its system Blumeria graminis f. sp. tritici. The assay is described as follows: Test C: wheat powdery mildew, preventive spray on wheat seedlings. Conditions: rated after 8 days, 100 = 100% disease control, 0 = no control. The method, boiled down: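 Compound dissolved in acetone (3% of final volume), then suspended in 50/50 acetone/water with 250 ppm PEG400 and sprayed to run-off on wheat seedlings. Inoculated next day with B. graminis f. sp. tritici spore dust, kept 8 days at 20° C; visual rating, 100 = full control, 0 = none, relative to controls.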

Assay [5] relates to Phakopsora pachyrhizi. The assay is described as follows: Test D: Asian soybean rust, preventive spray on soybean seedlings. The settings on record: 100 = 100% disease control, 0 = no control. A digest of the protocol:
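Soybean seedlings sprayed to run-off with compound suspension (ppm, in 50/50 acetone/water with 250 ppm PEG400), inoculated next day with P. pachyrhizi spores, held 24 h saturated at 22°C then 8 days at 22°C. Visual rating 0-100% disease control relative to controls.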

Assay [6] has as its system Alternaria solani. The assay is described as follows: Test F: tomato early blight, preventive spray on tomato seedlings. The settings on record: 100 = 100% disease control, 0 = no control. The method, boiled down:
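Compounds in acetone/water (50/50) with 250 ppm PEG400, dosed in ppm, sprayed to run-off on tomato seedlings; next day inoculated with A. solani spores. Held 48 h saturated at 27° C, then 3 days at 20° C; visual rating 0–100% disease control relative to controls.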

`COc1cc(F)c(-c2c(C)nn(C)c2Nc2c(F)cccc2[N+](=O)[O-])c(F)c1` [Compound 70]: in assay [1] (50 ppm), the “Test B disease control rating (wheat leaf rust)” value (from here on “Test B disease control rating”) came to 100%. Moreover, the “Test A disease control rating (wheat leaf blotch)” value (“Test A disease control rating” below) in assay [2] (50 ppm) stood at 100%. The “Test E disease control rating (tomato Botrytis)” value (shortened to “Test E disease control rating”) in assay [3] (50 ppm) came out at 99%. Moreover, the “Test C disease control rating (wheat powdery mildew)” value (“Test C disease control rating” for short) in assay [4] (50 ppm) amounted to 99%. In addition, the “Test D disease control rating (Asian soybean rust)” value (“Test D disease control rating” below) in assay [5] (50 ppm) is given as 84%. In assay [6] (50 ppm), the “Test F disease control rating (tomato early blight)” value (shortened to “Test F disease control rating”) is on record as 99%.

Consider `CCc1nn(C)c(Nc2c(Cl)cc(C)cc2[N+](=O)[O-])c1-c1ccc(F)cc1F` [Compound 16], for which the “Test B disease control rating” value in assay [1] (50 ppm) was determined as 99%. Further, the “Test A disease control rating” value in assay [2] (50 ppm) was 100%. Further, the “Test E disease control rating” value in assay [3] (50 ppm) is recorded as 99%. Moreover, the “Test C disease control rating” value in assay [4] (50 ppm) was determined as 98%. Also, the “Test D disease control rating” value in assay [5] (50 ppm) worked out at 50%. Moreover, the “Test F disease control rating” value in assay [6] (50 ppm) turned out to be 0%.

As to `COc1cc(F)c(Nc2c(-c3ccc(F)cc3Br)c(C)nn2C)c([N+](=O)[O-])c1` [Compound 165], the “Test B disease control rating” value in assay [1] (50 ppm) was 100%. In addition, the “Test A disease control rating” value in assay [2] (50 ppm) was 99%. Moreover, the “Test E disease control rating” value in assay [3] (50 ppm) stood at 100%. In addition, the “Test C disease control rating” value in assay [4] (50 ppm) was determined as 98%. In addition, the “Test D disease control rating” value in assay [5] (50 ppm) amounted to 94%. In assay [6] (50 ppm), the “Test F disease control rating” value is reported as 100%.

For the molecule `Cc1nn(C)c(Nc2c(Cl)cc(Br)cc2[N+](=O)[O-])c1-c1ccc(F)cc1Cl` [Compound 8], in assay [1] (50 ppm), the “Test B disease control rating” value came out at 99%. Besides, in assay [2] (50 ppm), the “Test A disease control rating” value was 99%. For the same molecule, the “Test E disease control rating” value in assay [3] (50 ppm) is 99%. For the same molecule, in assay [4] (50 ppm), the “Test C disease control rating” value is on record as 92%. In addition, the “Test D disease control rating” value in assay [5] (50 ppm) is 73%. In addition, the “Test F disease control rating” value in assay [6] (50 ppm) is 73%.

Turning to `COc1ccc(Nc2c(-c3ccc(Cl)cc3Cl)c(C)nn2C)c([N+](=O)[O-])c1` [Compound 142], the “Test B disease control rating” value in assay [1] (50 ppm) is given as 91%. Also, the “Test A disease control rating” value in assay [2] (50 ppm) was 100%. Moreover, the “Test E disease control rating” value in assay [3] (50 ppm) was 99%. Besides, the “Test C disease control rating” value in assay [4] (50 ppm) amounted to 39%. Moreover, the “Test D disease control rating” value in assay [5] (50 ppm) is recorded as 25%. In assay [6] (50 ppm), the “Test F disease control rating” value was 80%.

As for `Cc1cc(F)c(Nc2c(-c3ccc(F)cc3F)c(C)nn2C)c([N+](=O)[O-])c1` [Compound 178], the “Test B disease control rating” value in assay [1] (50 ppm) was found to be 100%. In assay [2] (50 ppm), the “Test A disease control rating” value stood at 100%. Moreover, the “Test E disease control rating” value in assay [3] (50 ppm) turned out to be 100%. In assay [4] (50 ppm), the “Test C disease control rating” value came to 99%. Moreover, the “Test D disease control rating” value in assay [5] (50 ppm) came out at 97%. In addition, in assay [6] (50 ppm), the “Test F disease control rating” value turned out to be 100%.

Take `Cc1ccc(Nc2c(-c3ccc(F)cc3Cl)c(C)nn2C)c([N+](=O)[O-])c1` [Compound 26]: the “Test B disease control rating” value in assay [1] (50 ppm) is recorded as 99%. For the same molecule, the “Test A disease control rating” value in assay [2] (50 ppm) was determined as 100%. Moreover, in assay [3] (50 ppm), the “Test E disease control rating” value amounted to 100%. In assay [4] (50 ppm), the “Test C disease control rating” value came to 94%. Moreover, in assay [5] (50 ppm), the “Test D disease control rating” value is given as 77%. Besides, the “Test F disease control rating” value in assay [6] (50 ppm) was determined as 68%.

As for `Cc1cc(Cl)c(Nc2c(-c3ccc(F)cc3Br)c(C)nn2C)c([N+](=O)[O-])c1` [Compound 181], the “Test B disease control rating” value in assay [1] (50 ppm) worked out at 100%. Also, in assay [2] (50 ppm), the “Test A disease control rating” value stood at 100%. Also, the “Test E disease control rating” value in assay [3] (50 ppm) is given as 99%. Besides, the “Test C disease control rating” value in assay [4] (50 ppm) turned out to be 99%. Moreover, the “Test D disease control rating” value in assay [5] (50 ppm) was 78%. In assay [6] (50 ppm), the “Test F disease control rating” value turned out to be 99%.

On to `CCc1nn(C)c(Nc2c(F)cc(F)cc2[N+](=O)[O-])c1-c1ccc(F)cc1Cl` [Compound 95], for which the “Test B disease control rating” value in assay [1] (50 ppm) is given as 100%. Moreover, in assay [2] (50 ppm), the “Test A disease control rating” value is given as 100%. For the same molecule, in assay [3] (50 ppm), the “Test E disease control rating” value is listed as 99%. Further, the “Test C disease control rating” value in assay [4] (50 ppm) is on record as 100%. Moreover, the “Test D disease control rating” value in assay [5] (50 ppm) was determined as 84%. In addition, in assay [6] (50 ppm), the “Test F disease control rating” value came out at 99%.

On to `COc1cc(F)c(-c2c(C)nn(C)c2Nc2c(Cl)cc(F)cc2[N+](=O)[O-])c(F)c1` [Compound 2], for which, in assay [1] (50 ppm), the “Test B disease control rating” value is listed as 100%. The “Test A disease control rating” value in assay [2] (50 ppm) was 100%. The “Test E disease control rating” value in assay [3] (50 ppm) was found to be 99%. Also, the “Test C disease control rating” value in assay [4] (50 ppm) amounted to 99%. The “Test D disease control rating” value in assay [5] (50 ppm) amounted to 94%. Further, the “Test F disease control rating” value in assay [6] (50 ppm) was found to be 61%.

`CCc1nn(C)c(Nc2c(F)cccc2[N+](=O)[O-])c1-c1ccc(F)cc1Cl` [Compound 72, 4-(2-chloro-4-fluorophenyl)-N-(2-fluoro-6-nitrophenyl)-3-ethyl-1-methyl-1H-pyrazol-5-amine]: the pest or weed control at 10 ppm in assay [1] (10 ppm, read-out: Test B disease control rating (wheat leaf rust)) came out at 85%; in assay [2] (Zymoseptoria tritici, 10 ppm, read-out: Test A disease control rating (wheat leaf blotch)), 100%; in assay [3] (Botrytis cinerea, 10 ppm, read-out: Test E disease control rating (tomato Botrytis)), 98%; in assay [4] (Blumeria graminis, 192 h, 10 ppm, read-out: Test C disease control rating (wheat powdery mildew)), 81%; in assay [5] (Phakopsora pachyrhizi, 10 ppm, read-out: Test D disease control rating (Asian soybean rust)), 12%; in assay [6] (Alternaria solani, 10 ppm, read-out: Test F disease control rating (tomato early blight)) it was 63%. Also, the pest or weed control at 50 ppm in assay [1] (50 ppm, read-out: Test B disease control rating (wheat leaf rust)) is 100%; in assay [2] (Zymoseptoria tritici, 50 ppm, read-out: Test A disease control rating (wheat leaf blotch)) it was 100%; in assay [3] (Botrytis cinerea, 50 ppm, read-out: Test E disease control rating (tomato Botrytis)) it was 98%; in assay [4] (Blumeria graminis, 192 h, 50 ppm, read-out: Test C disease control rating (wheat powdery mildew)), 99%; in assay [5] (Phakopsora pachyrhizi, 50 ppm, read-out: Test D disease control rating (Asian soybean rust)) it was 31%; in assay [6] (Alternaria solani, 50 ppm, read-out: Test F disease control rating (tomato early blight)), 99%.

With `COc1cc(F)c(-c2c(C)nn(C)c2Nc2c(F)cc(F)cc2[N+](=O)[O-])c(F)c1` [Compound 84], the “Test B disease control rating” value in assay [1] (50 ppm) is listed as 100%. For the same molecule, in assay [2] (50 ppm), the “Test A disease control rating” value is reported as 100%. The “Test E disease control rating” value in assay [3] (50 ppm) worked out at 90%. Further, the “Test C disease control rating” value in assay [4] (50 ppm) worked out at 99%. The “Test D disease control rating” value in assay [5] (50 ppm) came to 48%. For the same molecule, in assay [6] (50 ppm), the “Test F disease control rating” value is 99%.

With `Cc1nn(C)c(Nc2ccccc2[N+](=O)[O-])c1-c1ccc(F)cc1Br` [Compound 139], the “Test B disease control rating” value in assay [1] (50 ppm) stood at 86%. The “Test A disease control rating” value in assay [2] (50 ppm) came to 98%. Also, the “Test E disease control rating” value in assay [3] (50 ppm) is given as 100%. In addition, in assay [4] (50 ppm), the “Test C disease control rating” value amounted to 76%. Also, the “Test D disease control rating” value in assay [5] (50 ppm) worked out at 0%. The “Test F disease control rating” value in assay [6] (50 ppm) stood at 33%.

As for `Cc1nn(C)c(Nc2ccccc2[N+](=O)[O-])c1-c1c(F)cccc1F` [Compound 135], the “Test B disease control rating” value in assay [1] (50 ppm) is given as 68%. In addition, the “Test A disease control rating” value in assay [2] (50 ppm) amounted to 100%. Besides, the “Test E disease control rating” value in assay [3] (50 ppm) came out at 99%. Further, the “Test C disease control rating” value in assay [4] (50 ppm) was 93%. Also, the “Test D disease control rating” value in assay [5] (50 ppm) stood at 0%. For the same molecule, the “Test F disease control rating” value in assay [6] (50 ppm) worked out at 0%.
